Measurements published in patent US20120207763A1, “PYRROLOPYRIMIDINE COMPOUNDS AND THEIR USES” (ASTEX THERAPEUTICS LIMITED, priority 2006, published 2012).
Read-outs that look alike come from different tables or passages of the source.

How the values were obtained:
[1] = target: CDK2/Cyclin-A kinase complex (Homo sapiens, UniProt P24941); assay: CDK2 IMAP fluorescence polarization assay; type: biochemical
Excerpt: In order to test the CDK2 activity of the compounds of the invention, the CDK2 assay is a flourescence polarization assay, where the enzyme is a purified active CDK2/Cyclin-A kinase complex and the substrate is a synthesized peptide derived from Histone H1. This assay utilizes the IMAP technology from Molecular Devices. The active CDK2/Cyclin-A complex phosphorylates the peptide substrate, which is conjugated with the TAMRA tag. The phosphorylated site is then recognized by a metal containing molecule that interacts with the TAMRA tag to induce a high flourescence polarization. The compounds that inhibit the CDK2 kinase activity would inhibit the flourescence output of the assay.

CDK4 = CDK4 (Homo sapiens, UniProt P11802); assay: CDK4 HTRF assay; type: biochemical; details: Table E; read-out: CDK4 HTRF/IC50 [umol l − 1]
Chain of CDK4 (P11802 whole entry): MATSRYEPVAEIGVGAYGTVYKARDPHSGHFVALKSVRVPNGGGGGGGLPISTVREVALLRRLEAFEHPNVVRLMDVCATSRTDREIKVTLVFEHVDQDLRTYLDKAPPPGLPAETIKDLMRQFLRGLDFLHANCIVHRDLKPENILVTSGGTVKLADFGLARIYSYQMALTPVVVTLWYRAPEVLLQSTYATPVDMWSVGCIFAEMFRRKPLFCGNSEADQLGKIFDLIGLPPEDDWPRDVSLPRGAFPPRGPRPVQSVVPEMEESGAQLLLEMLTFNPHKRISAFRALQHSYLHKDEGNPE
Chain of CDK4 (P24385 whole entry partner): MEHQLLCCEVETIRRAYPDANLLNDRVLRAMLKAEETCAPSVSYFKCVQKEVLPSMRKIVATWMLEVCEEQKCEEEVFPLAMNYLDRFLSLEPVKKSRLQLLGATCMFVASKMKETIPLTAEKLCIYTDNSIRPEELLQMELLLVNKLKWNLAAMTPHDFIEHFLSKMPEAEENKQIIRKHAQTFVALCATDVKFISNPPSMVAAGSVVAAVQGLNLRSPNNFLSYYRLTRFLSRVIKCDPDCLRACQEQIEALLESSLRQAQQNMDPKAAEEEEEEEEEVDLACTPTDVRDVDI

[2] = Table E, read-out: CDK2cyA IMAP/IC50 [umol l − 1]

Row | Structure (SMILES) | IC50 [1, 2] [µM] | IC50 (CDK4) [µM] | IC50 ([1]; Table C, read-out: CDK2 IC50) [µM]
1 | CN(C)CC1CCC(n2ccc3cnc(Nc4ccc(N5CCNCC5)cc4)nc32)C1 (stereo not shown) [Example 249] | < 10 |  | 
2 | c1cc(N2CCNCC2)ccc1Nc1ncc2ccn(C3CCCCC3)c2n1 [Example 246] | < 1 | < 1 | 
3 | CCC(CC)n1ccc2cnc(Nc3ccc(N4CCNCC4)cc3)nc21 [Example 202, [7-(1-Ethyl-propyl)-7H-pyrrolo[2,3-d]pyrimidin-2-yl]-(4-piperazin-1-yl-phenyl)-amine] | < 10 | < 1 | 
4 | OC1CCCC(n2ccc3cnc(Nc4ccc(N5CCNCC5)cc4)nc32)C1 (stereo not shown) [Example 244] | < 1 | < 1 | 
5 | O=C(O)[C@@H]1CCC(n2ccc3cnc(Nc4ccc(N5CCNCC5)cc4)nc32)C1 (stereo partly shown) [Example 248] | < 10 | < 1 | 
6 | CCC(C)n1ccc2cnc(Nc3ccc(N4CCNCC4)cc3)nc21 (stereo not shown) [Example 230] | < 10 | < 1 | 
7 | Cc1cn(-c2ccccc2)c2nc(Nc3ccc(N4CCNCC4)cc3)ncc12 [Example 273] | > 10 | > 10 | 
8 | CCC(C(=O)OC)n1ccc2cnc(Nc3ccc(N4CCN(C(C)=O)CC4)cc3)nc21 (stereo not shown) [Example 219] | < 10 |  | 
9 | CCN(CC)c1ccc(Nc2ncc3ccn(C4CCCC4)c3n2)cc1 [Example 261] | < 10 | > 10 | 
10 | CC1CN(C2CCCC2)c2nc(Nc3ccc(N4CCN(C)CC4)cc3)ncc21 (stereo not shown) |  |  | > 10
11 | CN(C)c1ccc(Nc2ncc3ccn(C4CCCC4)c3n2)cc1 [Example 262] | < 10 | > 10 | 
12 | CCC(C)n1ccc2cnc(Nc3ccc(N4CCN(C(C)=O)CC4)cc3)nc21 (stereo not shown) [Example 222] | < 10 |  | 
13 | CC(=O)N1CCN(c2ccc(Nc3ncc4ccn(C5CCCCC5=O)c4n3)cc2)CC1 (stereo not shown) [Example 226] | > 10 |  | 
14 | CC(=O)N1CCN(c2ccc(Nc3ncc4ccn(C5CCCC5)c4n3)nc2)CC1 [Example 252] | > 10 |  | 
15 | CCC(CC)n1ccc2cnc(Nc3ccc(N4CCN(C(C)=O)CC4)cc3)nc21 [Example 201] | < 10 |  | 
16 | CCC(=O)N1CCN(c2ccc(Nc3ncc4ccn(C(CC)CC)c4n3)cc2)CC1 [Example 237] | < 10 |  | 
17 | CN1CCN(c2ccc(Nc3ncc4ccn(C5CCCC5)c4n3)cc2)CC1 [Example 253] | < 10 |  | 
18 | CCC(C(=O)OC)n1ccc2cnc(Nc3ccc(N4CCNCC4)cc3)nc21 (stereo not shown) [Example 221] | < 10 |  | 
19 | CC(=O)N1CCN(c2ccc(Nc3ncc4ccn(C5CCCC(C)C5)c4n3)cc2)CC1 (stereo not shown) [Example 241] | < 10 |  | 
20 | CC(=O)N1CCN(c2ccc(Nc3ncc4ccn(C5CCOCC5)c4n3)cc2)CC1 [Example 228] | < 10 |  | 
21 | c1cc(N2CCNCC2)ccc1Nc1ncc2ccn(C3CCOCC3)c2n1 [Example 235] | > 10 |  | 
22 | CCOC(=O)C(C(C)C)n1ccc2cnc(Nc3ccc(N4CCN(C(C)=O)CC4)cc3)nc21 (stereo not shown) [Example 223] | > 10 |  | 
23 | CCC(C(N)=O)n1ccc2cnc(Nc3ccc(N4CCN(C(C)=O)CC4)cc3)nc21 (stereo not shown) [Example 227] | < 10 |  | 
24 | Cc1cn(C2CC2)c2nc(Nc3ccc(N4CCN(C)CC4)cc3)ncc12 [Example 270] | > 10 |  | 
25 | CC(=O)N1CCN(c2ccc(Nc3ncc4ccn(C5CCC(C)CC5)c4n3)cc2)CC1 (stereo not shown) [Example 236] | < 1 |  | 
26 | CCC(C(N)=O)n1ccc2cnc(Nc3ccc(N4CCNCC4)cc3)nc21 (stereo not shown) [Example 234] | > 10 |  | 
27 | CC(=O)N1CCN(c2ccc(Nc3ncc4ccn(C5CCCC5)c4n3)cc2)CC1 [Example 254] | < 1 |  | 
28 | Cc1cn(C2CC2)c2nc(Nc3ccc(N4CCNCC4)cn3)ncc12 [Example 271] | > 10 |  | 
29 | CC(=O)N1CCN(c2ccc(Nc3ncc4c(C)cn(C5CCCCC5)c4n3)cc2)CC1 [Example 274] | > 10 |  | 

Now from value to molecule:

Row | IC50 [1, 2] [µM] | IC50 (CDK4) [µM] | IC50 ([1]; Table C, read-out: CDK2 IC50) [µM] | Structure (SMILES)
30 | > 10 | 10 |  | Cc1cn(-c2cccnc2)c2nc(Nc3ccc(N4CCNCC4)cn3)ncc12 [Example 447]
31 | > 10 | 10 |  | Cc1cn(C2CCCC2)c2nc(Nc3ncccn3)ncc12 [Example 296]
32 | > 10 | 10 |  | Cc1cn(C2CCCC2)c2nc(Nc3ccccc3F)ncc12 [Example 441]
33 | > 10 | < 1 |  | Cc1c(Cl)c2cnc(Nc3ccc(N4CCNCC4)cn3)nc2n1C1CCCC1 [Example 334]
34 | < 10 | < 1 |  | CCC(CC)n1c(C(=O)Nc2ccccc2)cc2cnc(Nc3ccc(N4CCNCC4)cc3)nc21 [Example 345]
35 | < 10 | < 1 |  | CCC(CC)n1c(C(C)OC)cc2cnc(Nc3ccc(N4CCNCC4)cc3)nc21 (stereo not shown) [Example 378, [7-(1-Ethyl-propyl)-6-(1-methoxy-ethyl)-7H-pyrrolo[2,3-d]pyrimidin-2-yl]-(4-piperazin-1-yl-phenyl)-amine]
36 | > 10 | 10 |  | Cc1cccnc1Nc1ncc2c(C)cn(C3CCCC3)c2n1 [Example 297]
37 | > 10 |  |  | Cc1cn(-c2cccnc2)c2nc(Nc3ccc(N4CCNCC4)cc3)ncc12 [Example 322]
38 | > 10 | > 10 |  | Cc1cn(C2CC2)c2nc(Nc3ccc(N4CCNCC4)cc3)ncc12 [Example 276]
39 | > 10 |  |  | Cc1cn(-c2ccccn2)c2nc(Nc3ccc(N4CCNCC4)cn3)ncc12 [Example 320, (5-Methyl-7-pyridin-2-yl-7H-pyrrolo[2,3-d]pyrimidin-2-yl)-(5-piperazin-1-yl-pyridin-2-yl)-amine]
40 | < 10 | < 1 |  | CCC(CC)n1c(C(C)O)cc2cnc(Nc3ccc(N4CCN(C(C)=O)CC4)cc3)nc21 (stereo not shown) [Example 376, 1-(4-{4-[7-(1-Ethyl-propyl)-6-(1-hydroxy-ethyl)-7H-pyrrolo[2,3-d]pyrimidin-2-ylamino]-phenyl}-piperazin-1-yl)-ethanone]
41 | > 10 | > 10 |  | Brc1cn(C2CCCC2)c2nc(Nc3ccc(N4CCNCC4)cn3)ncc12 [Example 432]
42 | < 1 |  |  | Cc1cn(C2CCCC2)c2nc(Nc3ccc(S(N)(=O)=O)cc3)ncc12 [Example 288]
43 | < 10 | < 1 |  | Cc1c(-c2cnco2)n(C2CCCC2)c2nc(Nc3ccc(N4CCNCC4)cn3)ncc12 [Example 399]
44 | > 10 | < 1 |  | Cc1cn(C2CCCCC2)c2nc(Nc3ccc(N4CCNCC4)cn3)ncc12 [Example 426]
45 | < 10 | 10 |  | Cc1cn(C2CCCC2)c2nc(Nc3ccc(F)cc3)ncc12 [Example 442]
46 | > 10 |  |  | CCCCNC(=O)c1cc2cnc(Nc3ccc(N4CCNCC4)cc3)nc2n1C(CC)CC [Example 336]
47 | < 10 | 10 |  | Cc1cn(C2CCCC2)c2nc(Nc3cccc(Cl)c3)ncc12 [Example 299]
48 | > 10 |  |  | Cc1cc(-c2c(C)c3cnc(Nc4ccc(N5CCNCC5)cn4)nc3n2C2CCCC2)on1 [Example 405]
49 | > 10 |  |  | CCC(CC)n1c(C(=O)N2CCCC2)cc2cnc(Nc3ccc(N4CCNCC4)cc3)nc21 [Example 337]

Row | IC50 [1, 2] [µM] | IC50 (CDK4) [µM] | IC50 ([1]; Table C, read-out: CDK2 IC50) [µM] | Structure (SMILES)
50 | > 10 | 10 |  | Cc1cn(C2CCCC2)c2nc(Nc3ccccc3[N+](=O)[O-])ncc12 [Example 295]
51 | < 1 | < 1 |  | CCC(CC)n1c(C(C)=O)cc2cnc(Nc3ccc(N4CCN(C(C)=O)CC4)cc3)nc21 [Example 377, 1-[2-[4-(4-Acetyl-piperazin-1-yl)-phenylamino]-7-(1-ethyl-propyl)-7H-pyrrolo[2,3-d]pyrimidin-6-yl]-ethanone]
52 | < 10 | 10 |  | Cc1cn(-c2nccs2)c2nc(Nc3ccc(N4CCN(S(C)(=O)=O)CC4)cn3)ncc12 [Example 446]
53 | > 10 | 10 |  | Cc1cn(C2CCCC2)c2nc(Nc3ccccc3C#N)ncc12 [Example 301]
54 | < 10 |  |  | CCC(CC)n1c(C(=O)OC)cc2cnc(Nc3ccc(N4CCN(C(C)=O)CC4)cc3)nc21 [Example 373, 2-[4-(4-Acetyl-piperazin-1-yl)-phenylamino]-7-(1-ethyl-propyl)-7H-pyrrolo[2,3-d]pyrimidine-6-carboxylic acid methyl ester]
55 | < 10 |  |  | Cc1cn(C2CCCC2)c2nc(Nc3ccc(N4CCNCC4)c(F)c3)ncc12 [Example 285]
56 | < 10 |  |  | CCC(CC)n1c(CNC(C)C)cc2cnc(Nc3ccc(N4CCNCC4)cc3)nc21 [Example 367]
57 | > 10 |  |  | CCC(CC)n1c(C(=O)NC2CCCC2)cc2cnc(Nc3ccc(N4CCNCC4)cc3)nc21 [Example 344]
58 | < 10 |  |  | Cc1cn(C2CCCC2)c2nc(Nc3ccc(N4CCN(S(C)(=O)=O)CC4)cc3)ncc12 [Example 286]
59 | < 10 |  |  | CCC(CC)n1c(CNC(C)C)cc2cnc(Nc3ccc(N4CCN(C(C)=O)CC4)cc3)nc21 [Example 366]
60 | > 10 |  |  | Cc1cn(C2CCCC2)c2nc(Nc3ccc(N4CCNCC4)nc3)ncc12 [Example 283]
61 | < 10 |  |  | CCc1cn(C2CCCC2)c2nc(Nc3ccc(N4CCNCC4)cc3)ncc12 [Example 438]
62 | > 10 |  |  | CC(C)c1cn(C2CCCC2)c2nc(Nc3ccc(N4CCNCC4)cn3)ncc12 [Example 440]
63 | > 10 |  |  | Cc1cn(-c2nccs2)c2nc(Nc3ccc(N4CCNCC4)cn3)ncc12 [Example 321]
64 | > 10 |  |  | CC(=O)c1c(C)c2cnc(Nc3ccc(N4CCNCC4)cn3)nc2n1C1CCOCC1 [Example 388]
65 | < 1 |  |  | Cc1cn(C2CCCC2)c2nc(Nc3cccnc3)ncc12 [Example 300]
66 | > 10 |  |  | Cc1cn(-c2ccccc2)c2nc(Nc3ccc(N4CCNCC4)cc3)ncc12 [Example 437]
67 | > 10 |  |  | CCC(CC)n1c(C(=O)N2CCOCC2)cc2cnc(Nc3ccc(N4CCNCC4)cc3)nc21 [Example 343]
68 | < 1 |  |  | Cc1cn(C2CCCC2)c2nc(Nc3ccncc3)ncc12 [Example 298]
